Measured values taken from patent US20120087864A1, “METHOD FOR DIAGNOSING AND/OR EVALUATING RETINAL DISEASE” (R-TECH UENO, LTD., priority 2010, published 2012).

System: patient with retinal pigmentosa
Assay: Distribution of MP-1 central 2 degrees retinal sensitivity change by concentration of metabolite A in plasma (LC/MS/MS)
Format: in vivo, human
Details: instillation group
Experimental: Concentration of drug in plasma (20 week after the initiation of test drug administration, the concentration of the drug in plasma after 15 minutes had passed since instillation of the second drop). Evaluate items: The concentration of isopropyl unoprostone and its metabolite A (free carboxylic acid of isopropyl unoprostone in plasma was measured.)
Twenty weeks after the initiation of the test drug administration in Test Example 1, the concentration of the drug in plasma was measured after 15 minutes had passed since instillation of the second drop.
Evaluation item: concentration of metabolite A (free carboxylic acid of isopropyl unoprostone) in plasma Measuring method: Twenty weeks after initiation of test drug administration, samples were obtained by drawing 4 ml of blood per time after 15 minutes had passed since instillation of the second drop, and then the concentration of the metabolite A in plasma was measured by liquid chromatogram/Tandem mass spectrometer (LC/MS/MS) using a portion of the measuring samples. Measuring apparatus: liquid chromatograph/Tandem mass spectrometer (LC/MS/MS) [High-performance liquid chromatography system (SHIMADZU 20A, manufactured by Shimadzu Corporation) Analysis column: Develosil ODS-UG-3 (2.0 mm I.D.×50 mm, 3 μm, manufactured by Nomura Chemical Co., Ltd.) Column temperature: 35° C. Injection amount: 20 μL Mobile phase A: acetonitrile/10 mmol/L ammonium acetate solution/acetic acid (20:80:0.1, v/v/v) Mobile phase B: acetonitrile/acetic acid (100:0.1, v/v) Needle wash: Methanol Flow rate: 0.25 mL/minute Mass spectrometry (API 4000, manufactured by Applied Biosystems)] Ionization method: ESI method (Turbo ion spray, 350° C.) […] Internal standard substance: 17,20-dimethyl PGF1α
In order to evaluate a correlation of the change value (24 weeks) of average retinal sensitivity by MP-1 in central 2 degrees (4 points) with the concentration of metabolite A in plasma of the isopropyl unoprostone instillation group, when the change value (24 weeks) of average retinal sensitivity by MP-1 in central 2 degrees (4 points) was a positive value, it was classified as “improvement”. In contrast, when the change value was zero and a negative value, it was classified as “non-improvement”. Furthermore, each concentration of metabolite A in plasma (1 ng/mL, 2 ng/mL, 2.5 ng/mL and 3 ng/mL) was regarded as a boundary concentration, distribution of the change value (24 weeks) by MP-1 in central 2 degrees (4 points) average retinal sensitivity was confirmed.

[1] = metabolite A in plasma 1.0 ng/mL or more
[2] = metabolite A in plasma 2.0 ng/mL or more
[3] = metabolite A in plasma 2.5 ng/mL or more
[4] = metabolite A in plasma 3.0 ng/mL or more
[5] = metabolite A in plasma less than 1.0 ng/mL
[6] = metabolite A in plasma less than 2.0 ng/mL
[7] = metabolite A in plasma less than 2.5 ng/mL
[8] = metabolite A in plasma less than 3.0 ng/mL

CCCCCCCC(=O)CC[C@@H]1[C@@H](C/C=C\CCCC(=O)OC(C)C)[C@@H](O)C[C@H]1O [isopropyl unoprostone, (+)-isopropyl (Z)-7-[(1R,2R,3R,5S)-3,5-dihydroxy-2-(3-oxodecyl)cyclopentyl]hept-5-enoate]
number of improved cases (MP-1 central 2 degrees change value, 24 weeks, positive) [1]: 33 | number of non-improved cases [1]: 18 | ratio of improved cases [1]: (64.7%) | ratio of non-improved cases [1]: (35.3%) | number of improved cases (MP-1 central 2 degrees change value, 24 weeks, positive) [2]: 16 | number of non-improved cases [2]: 8 | ratio of improved cases [2]: (66.7%) | ratio of non-improved cases [2]: (33.3%) | number of improved cases (MP-1 central 2 degrees change value, 24 weeks, positive) [3]: 12 | number of non-improved cases [3]: 2 | ratio of improved cases [3]: (85.7%) | ratio of non-improved cases [3]: (14.3%) | number of improved cases (MP-1 central 2 degrees change value, 24 weeks, positive) [4]: 9 | number of non-improved cases [4]: 1 | ratio of improved cases [4]: (90.0%) | ratio of non-improved cases [4]: (10.0%) | number of improved cases (MP-1 central 2 degrees change value, 24 weeks, positive) [5]: 11 | number of non-improved cases [5]: 11 | ratio of improved cases [5]: (50.0%) | ratio of non-improved cases [5]: (50.0%) | number of improved cases (MP-1 central 2 degrees change value, 24 weeks, positive) [6]: 28 | number of non-improved cases [6]: 21 | ratio of improved cases [6]: (57.1%) | ratio of non-improved cases [6]: (42.9%) | number of improved cases (MP-1 central 2 degrees change value, 24 weeks, positive) [7]: 32 | number of non-improved cases [7]: 27 | ratio of improved cases [7]: (54.2%) | ratio of non-improved cases [7]: (45.8%) | number of improved cases (MP-1 central 2 degrees change value, 24 weeks, positive) [8]: 35 | number of non-improved cases [8]: 28 | ratio of improved cases [8]: (55.6%) | ratio of non-improved cases [8]: (44.4%)
